Laboratory results: patent publication US11578265B2, “AIEgens for cancer cell imaging” (THE HONG KONG UNIVERSITY OF SCIENCE AND TECHNOLOGY, priority 2016, dated 2023)

Legend:
[1] = UV-vis and photoluminescence properties of 2TPE-4E; type: physicochemical
Procedure: The photophysical properties of 2TPE-4E were investigated by UV-vis (FIG. 7A) and photoluminescence (PL) spectra. […] The high ε means 2TPE-4E could be excited by a weak laser power, which is beneficial for bio-application due to the weak photo-damage and photobleaching.
Although the film of 2TPE-4E looked bright, its quantum yield (QY) was measured to be around 6%, which can probably be ascribed to the high molar extinction coefficient. […] With the water fraction (fw) increasing, 2TPE-4E began to aggregate and gave a highest intensity at a fw of 90% due to the restriction of intramolecular rotation.

[2] = Photophysical properties of CSPP; type: physicochemical
Procedure: Inset: photographs of CSPP in water/iPrOH mixtures with 0% and 99% iPrOH fractions taken under 365 nm UV irradiation; (c) PL spectrum of CSPP in water/glycerol mixtures with different glycerol fractions (fG); and (d) plot of I/I0 at 620 nm versus fG, where I0 was the PL intensity in pure water. Inset: plot of log I against log η, where η was the solution viscosity. Concentration: 10 μM; λex: 400 nm.
The photophysical properties of CSPP were studied. […] However, the emission was enhanced at 640 nm in increments of isopropanol fraction (FIGS. 20a and b), which is a signature of AIE. The free intramolecular motion of a molecularly dissolved state in aqueous solution was in favor of non-radiative decay.
Addition of isopropanol induced the formation of aggregates and restricted the intramolecular motion (RIM), activating the radiative channel. Similarly, intramolecular motion can also be restricted in a highly viscous condition.

HCC827 cells [3] = test: CCK-8 cell viability with CSPP; type: cell-based, human; settings: HCC827, CSPP up to 50 μM, 24 hours
Procedure: (§1) HCC827 and NCI-H23 cells were seeded for 24 hours and incubated in CSPP of different concentration for 24 hours. Data given are the mean±SD (n=4). Before CSPP was further functionalized for antibody labeling, its biocompatibility was verified by CCK-8 assay (FIG. 22).

Water solubility of CSPP = type: physicochemical
From the text: The design and synthesis of the present subject matter was inspired by the simple design and synthesis of ASCP, which was further modified and the hydrophilicity was improved. To prevent denature of antibodies during conjugation, aqueous solution was used for the reaction. A water-soluble AIEgen having a long wavelength in absorption and emission was required. Piperazine (PZ) was introduced to the structure and served as the electron donating group and hydrophilic group; pyridium (Py) salt was kept as the strong electron withdrawing group and hydrophilic group; and α-Cyanostilbene was the core skeleton for attributing AIE characteristics. As such, a new AIEgen, CSPP, was synthesized by Knoevenagel condensation and Suzuki coupling and the targeted compound was successfully obtained. CSPP carries two positive charges, thus enjoying high water-solubility, and its donor-acceptor structure contributes to a long-wavelength absorption, as well as emission. The synthetic route to CSPP and CSPP—NHS is shown below, with the scheme of synthesis following.

NCI-H23 cells = test: CCK-8 cell viability with CSPP; type: cell-based; settings: NCI-H23, CSPP up to 50 μM, 24 hours
Procedure: as §1

HCC827 cells [4] = test: Cell imaging of CSPP and co-staining with MitoTracker Green; type: cell-based, human; settings: 5 μM
Procedure: The cell imaging of CSPP molecule was also checked (FIG. 23). […] After 8 hours of incubation, more dyes entered and accumulated in the mitochondria of the cells due to targeting of the pyridium group.

CCN(CC)c1ccc(C(=C(c2ccccc2)c2ccc(C#CC#CC#CC#Cc3ccc(C(=C(c4ccc(N(CC)CC)cc4)c4ccc(N(CC)CC)cc4)c4ccccc4)cc3)cc2)c2ccc(N(CC)CC)cc2)cc1 [2TPE-4E]
maximum absorption [1]: 473 nm
water fraction (fw) giving highest emission intensity ([1]; THF/water mixtures): 90%
emission in dilute THF solution ([1]; dilute THF): very weak emission
molar extinction coefficient (ε) ([1]; dilute THF solution and thin film): about 7×10^4 M^−1 cm^−1
quantum yield (QY) ([1]; film): around 6%
solid emission wavelength ([1]; thin film): 630 nm

C[n+]1ccc(-c2ccc(/C(C#N)=C/c3ccc(N4CC[N+](C)(C)CC4)cc3)cc2)cc1.[I-].[I-] [CSPP, (Z)-4-(4-(2-cyano-2-(4-(1-methylpyridin-1-ium-4-yl)phenyl)vinyl)phenyl)-1,1-dimethylpiperazin-1-ium iodide]
λmax, abs ([2]; Aggregates in 99% isopropanol): 400 nm
λmax, em ([2]; Aggregates in 99% isopropanol): 624 nm
φF ([2]; Aggregates in 99% isopropanol): 5.6%
λmax, abs ([2]; In 95% glycerol): 405 nm
λmax, em ([2]; In 95% glycerol): 610 nm
φF ([2]; In 95% glycerol): 13.7%
λmax, abs ([2]; In water): 395 nm
λmax, em ([2]; In water): 640 nm
φF ([2]; In water): 0.9%
emission in pure water ([2]; pure water): very weak emission
cell viability (HCC827 cells [3]): above 90%
water solubility (Water solubility of CSPP): water-soluble
cell viability (NCI-H23 cells): > 81%
emission from stained cells (HCC827 cells [4]; 30 minutes): no emission
emission from stained cells (HCC827 cells [4]; 8 hours): mitochondria lit up
Pearson correlation coefficient with MitoTracker Green (HCC827 cells [4]; 8 hours, co-staining): 0.80
